Test results as given in patent US20260294770A1, “FORMULATIONS OF NARINGENIN” (DEBUT BIOTECHNOLOGY, INC., priority 2023, published 2026).

What was measured:
[1] = ABTS antioxidant assay (aqueous); format: biochemical; details: for % Radical Inhibition: aqueous
Description: The 2,2′-Azinobis [3-ethylbenzothiazoline-6-sulfonic acid]-diammonium salt (ABTS) antioxidant assay is designed to evaluate the antioxidant activity of compositions comprising naringenin in an aqueous medium. ABTS+ solution is generated as a free radical and used to measure relative ability of a compound to scavenge free radicals. Reduction of the absorbance at 734 nm was standardized to solvent control as an indication of ABTS+ scavenging.

ALOXE3 = assay: Upregulation of gene expression and/or activity, 1% naringenin: ALOXE3
Description: (§1) In certain embodiments, administration of a composition comprising naringenin leads to up-regulation of LCE5A, KRT77, ALOXE3, KRT1, HPGD, MUCL1, CASP14, WFDC12, KRT10, DNASE1L2, IL37, SERPINB12, HAL, UPK1A, CALML5, LCE2B, and/or MIR205. In certain embodiments, administration of a composition comprising naringenin leads to down-regulation of CCL11, CSF2, IL23A, IL11, BMP6, IL13RA2, C2CD4A, NR4A2, C2CD4B, FGF2, FARP4, GDF15, THBS1, HSPA1A, PTGS2, and/or DKK1. Tables 10 and 11 provide data for upregulation and downregulation respectively of certain genes after administration of compositions comprising 1% naringenin.
Arachidonate lipoxygenase 3 (ALOXE3) is involved in formation of epidermis lipids. In particular, ALOXE3 helps add an oxygen molecule to certain fatty acids to produce substances called fatty acid hydroperoxides. The enzyme encoded by ALOXE3 is a hydroperoxide isomerase that synthesizes a unique type of epoxy alcohol (8R-hydroxy-11R,12R-epoxyeicosa-5Z,9E,14Z-trienoic acid) from 12R-hydroperoxyeicosatetraenoic acid (12R-HPETE). This epoxy alcohol can activate the nuclear receptor peroxisome proliferator-activated receptor alpha (PPARalpha), which is implicated in epidermal differentiation. Loss of function of the enzyme encoded by this gene results in ichthyosis, implicating the function of this gene in the differentiation of human skin. […]

TNFα = TNFα concentration in stimulated (stressed) normal human epidermal keratinocytes (ELISA); format: cell-based; details: for TNFα concentration: LPS + Poly:IC stressed NHEK, stimulated control 202.6
Description: Normal Human Epidermal Keratinocytes (NHEK) were stressed with a cocktail of lipopolysaccharide (LPS) and Polyinosinic-polycytidylic acid sodium salt (Poly:IC), external aggressors capable of inducing an inflammatory response. Stressed cells were subsequently treated with test articles and reduction in inflammatory markers was measuring by ELISA. Tables 19 and 20, provided below, discloses data for TNFα and IL-6 concentrations, respectively, in stressed normal human epidermal keratinocytes.

GDF15 = assay: Downregulation of gene expression and/or activity, 1% naringenin: GDF15
Description: as §1
Growth differentiation factor 15 (GDF15) plays a role in the inflammatory response. In certain embodiments, downregulation of GDF15 results in reduction in inflammation. In certain embodiments, the administration of composition comprising naringenin results in at least about 2 to about 10-fold downregulation of expression and/or activity of GDF15. In certain embodiments, the administration of composition comprising naringenin results in at least about five (5) fold downregulation of expression and/or activity of GDF15.

psoriasis models = details: cited from earlier work
MUCL1 = assay: Upregulation of gene expression and/or activity, 1% naringenin: MUCL1
Description: as §1

UPK1A = assay: Upregulation of gene expression and/or activity, 1% naringenin: UPK1A
Description: as §1
Uroplakin 1A (UPK1A) is involved in cell proliferation. The proteins in this family mediate signal transduction events that play a role in the regulation of cell development, activation, growth and motility. This encoded protein is found in the asymmetrical unit membrane (AUM) where it can complex with other transmembrane 4 superfamily proteins. UP1A may play a role in normal bladder epithelial physiology, possibly in regulating membrane permeability of superficial umbrella cells or in stabilizing the apical membrane through AUM/cytoskeletal interactions. In certain embodiments, compositions comprising naringenin leads to upregulation of UPK1A, which leads to increase cell proliferation, including the cells in the skin and the underlying tissues. […]

SERPINB12 = assay: Upregulation of gene expression and/or activity, 1% naringenin: SERPINB12
Description: as §1
Serine protease inhibitor (SERPINB12) plays a role in protection of epithelial cells. The intracellular serine protease inhibitors (serpins) are an important family of proteins that protect cells form proteinase-mediated injury. SERPINB12 is broadly expressed and is likely to protect cells, including epithelial cells, from both endogenous and exogenous peptidases. In certain embodiments, compositions comprising naringenin leads to upregulation of SERPINB12, which leads to increase in protection of epithelial cells. In certain embodiments, the administration of composition comprising naringenin results in at least about 5 to about 20-fold upregulation of expression and/or activity of SERPINB12. […]

glutathione = details: consumed orally; cited from earlier work
HAL = assay: Upregulation of gene expression and/or activity, 1% naringenin: HAL
Description: as §1

O=C1C[C@@H](c2ccc(O)cc2)Oc2cc(O)cc(O)c21 [naringenin, (2S)-5,7-Dihydroxy-2-(4-hydroxyphenyl)-2,3-dihydro-4H-1-benzopyran-4-one]
% Radical Inhibition ([1]; 0.0045 % w/w naringenin): 47.50%
% Radical Inhibition ([1]; 0.009 % w/w naringenin): 55.45%
% Radical Inhibition ([1]; 0.018 % w/w naringenin): 65.39%
IC50 antioxidant activity (ABTS) ([1]; aqueous solvent system, calculated): 0.0058 % w/w
Lowest concentration with antioxidant activity ([1]; aqueous systems): ≤ 0.001 % w/w
Fold-increase in expression and/or activity of ALOXE3 (ALOXE3): ~12 fold
TNFα concentration (TNFα; 0.0001% naringenin, p-value 6.99E−07): 94.3 pg/mL
TNFα concentration (TNFα; 0.0045% naringenin, p-value 0.002047): 43.8 pg/mL
TNFα concentration (TNFα; 0.007% naringenin, p-value 0.002961): 70.3 pg/mL
TNFα concentration (TNFα; 0.01% naringenin, p-value 0.004838): 104.2 pg/mL
inhibition at 0.0001 % (TNFα; Homo sapiens, NHEK, 0.0001% naringenin, vs stimulated control, p-value 6.99E−07, read-out: TNFα % Reduction vs Treated): 53.4%
inhibition at 0.0045 % (TNFα; Homo sapiens, NHEK, 0.0045% naringenin, vs stimulated control, p-value 0.002047, read-out: TNFα % Reduction vs Treated): 78.4%
inhibition at 0.007 % (TNFα; Homo sapiens, NHEK, 0.007% naringenin, vs stimulated control, p-value 0.002961, read-out: TNFα % Reduction vs Treated): 65.3%
inhibition at 0.01 % (TNFα; Homo sapiens, NHEK, 0.01% naringenin, vs stimulated control, p-value 0.004838, read-out: TNFα % Reduction vs Treated): 48.6%
Reduction of TNFα (in words) (TNFα; stressed keratinocytes): to non-stressed levels
fold downregulation in expression and/or activity of GDF15 (GDF15): ~6 fold
Fold-increase (downregulation table) GDF15 (GDF15; negative = downregulation): −6 fold
Skin barrier restoration (psoriasis models): restoration of skin barrier
Fold-increase in expression and/or activity of MUCL1 (MUCL1): 11 fold
Fold-increase in expression and/or activity of UPK1A (UPK1A): ~10 fold
Fold-increase in expression and/or activity of SERPINB12 (SERPINB12): ~13 fold
Glutathione (glutathione): increase
Fold-increase in expression and/or activity of HAL (HAL): 8 fold
